Test systems include COLO 205; CCRF-CEM; HOP-92; EKVX; MOLT-4; LOX IMVI; M14; NCI-H522; HT-29; SR; HOP-62; 786-0; TK-10; SK-MEL-28; UACC-62; UO-31; SF-295; OVCAR-4; SF-268.
Holding throughout (test): growth of human tumour cells (NCI), 48 h

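Interpolation was linear, between the two tested concentrations surrounding the appropriate level; five concentrations were tested over 48 hours in 96-well plates. Here, GI50 denotes the concentration required for 50% inhibition of growth.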 Active and inactive are the calls of the source. Cut-off read from the data, not from the text of the source: active = GI50 up to about 1.1 µM and inactive = higher.

For `O=C(/C=C/c1cc2ccccc2o1)N1CCN(c2ccccn2)CC1`, the GI50 in the experiment on COLO 205 is 85.7 µM (inactive); in the experiment on CCRF-CEM, > 100 µM (inactive); in the experiment with HOP-92, 60.5 µM (inactive); in the experiment on EKVX it was 95.5 µM (inactive); in the experiment with MOLT-4, 19 µM (inactive); with LOX IMVI, > 100 µM (inactive). For the same molecule, the GI50 is 71.6 µM (inactive) in the experiment on M14; 28 µM (inactive) in the experiment with NCI-H522; 68.7 µM (inactive) in the experiment with HT-29; > 100 µM (inactive) with SR; 97.9 µM (inactive) in the experiment on HOP-62; > 100 µM (inactive) in the experiment on 786-0. Moreover, the GI50 with TK-10 was 79.6 µM (inactive); with SK-MEL-28, 35.9 µM (inactive); with UACC-62, 86.7 µM (inactive); in the experiment with UO-31, 40.9 µM (inactive); in the experiment with SF-295, > 100 µM (inactive); with OVCAR-4 it was 49.8 µM (inactive). Further, the GI50 in the experiment on SF-268 was > 100 µM (inactive).

In the case of `CC(=O)O[C@H]1C(=O)[C@@]2(C)[C@H]([C@H](OC(=O)c3ccccc3)[C@]3(O)C[C@H](OC(=O)[C@H](O)[C@@H](NC(=O)c4ccccc4)C4CCCCC4)C(C)=C1C3(C)C)[C@]1(OC(C)=O)CO[C@@H]1C[C@@H]2O`, the GI50 in the experiment with COLO 205 was < 0.01 µM (active); in the experiment with CCRF-CEM, < 0.01 µM (active); in the experiment on HOP-92 it was < 0.0174 µM (active); in the experiment on EKVX it was 3 µM (inactive); in the experiment on MOLT-4, < 0.01 µM (active); in the experiment with LOX IMVI, < 0.01 µM (active). The GI50 with M14, in the experiment with NCI-H522, in the experiment on HT-29, in the experiment on SR, in the experiment on HOP-62 and in the experiment with 786-0 was < 0.01 µM (active) each time. The GI50 with TK-10 is 0.0352 µM (active); in the experiment with SK-MEL-28, 34.1 µM (inactive); with UACC-62, < 0.01 µM (active); in the experiment with UO-31 it was 0.313 µM (active); in the experiment on SF-295, < 0.01 µM (active); with OVCAR-4, 0.0227 µM (active). Besides, the GI50 with SF-268 was < 0.01 µM (active).

Regarding `NC(=O)C(c1ccccc1)N1OC2C(=O)N(Cc3ccccc3)C(=O)C2C1c1cccc(Oc2ccc(Cl)cc2)c1` (configuration not stated), the GI50 in the experiment with COLO 205 was 17.5 µM (inactive); in the experiment on CCRF-CEM it was 36.1 µM (inactive); with HOP-92 it was 33 µM (inactive); in the experiment with EKVX it was 27.1 µM (inactive); with MOLT-4, 32.8 µM (inactive); in the experiment on LOX IMVI it was 15.7 µM (inactive). Besides, the GI50 in the experiment on M14 is 23.6 µM (inactive); in the experiment with NCI-H522, 28.7 µM (inactive); with HT-29, 18.2 µM (inactive); in the experiment with SR, 22.7 µM (inactive); in the experiment with HOP-62, 42.1 µM (inactive); with 786-0, 21.3 µM (inactive). For the same molecule, the GI50 is 30.9 µM (inactive) in the experiment on TK-10; 79.3 µM (inactive) in the experiment on SK-MEL-28; 15.8 µM (inactive) in the experiment with UACC-62; 2.73 µM (inactive) in the experiment on UO-31; 38.5 µM (inactive) in the experiment with SF-295; 27.8 µM (inactive) in the experiment with OVCAR-4. Also, in the experiment on SF-268, the GI50 is 35.8 µM (inactive).

Take `CCOC(=O)Cn1nnc2ccc(Nc3nc4ccccc4nc3C(=O)OCC)cc21`: the GI50 in the experiment on COLO 205 is > 100 µM (inactive); in the experiment with CCRF-CEM, > 100 µM (inactive); in the experiment on HOP-92, 56.2 µM (inactive); in the experiment on EKVX, > 100 µM (inactive); with MOLT-4 it was > 100 µM (inactive); in the experiment on LOX IMVI, > 100 µM (inactive). The GI50 in the experiment on M14 was > 100 µM (inactive); in the experiment on NCI-H522, 39.7 µM (inactive); with HT-29, > 100 µM (inactive); with SR, > 100 µM (inactive); in the experiment with HOP-62, 38.3 µM (inactive); in the experiment on 786-0, 89.3 µM (inactive). In addition, the GI50 was 45.1 µM (inactive) in the experiment with TK-10; > 100 µM (inactive) in the experiment with SK-MEL-28; 65.3 µM (inactive) in the experiment on UACC-62; 30.1 µM (inactive) with UO-31; 34.7 µM (inactive) in the experiment with SF-295; > 100 µM (inactive) in the experiment with OVCAR-4. Also, the GI50 with SF-268 is 27.2 µM (inactive).

In the case of `COc1cc2c(c(OC)c1OC)-c1ccc(=O)c(O)cc1[C@@H](NC(C)=O)CC2` [COLCHICEINE], the GI50 is 19.4 µM (inactive) with COLO 205; 11.9 µM (inactive) in the experiment with CCRF-CEM; 20.2 µM (inactive) with HOP-92; 19.7 µM (inactive) in the experiment with EKVX; 5.42 µM (inactive) in the experiment on MOLT-4; 12.6 µM (inactive) in the experiment with LOX IMVI. The GI50 in the experiment with M14 is 24.7 µM (inactive); with NCI-H522, 12.2 µM (inactive); with HT-29, 16.1 µM (inactive); in the experiment with SR, 2.99 µM (inactive); in the experiment on HOP-62 it was 24.9 µM (inactive); with 786-0, 23.3 µM (inactive). Further, the GI50 with TK-10 is 37.9 µM (inactive); in the experiment with SK-MEL-28 it was 42.5 µM (inactive); in the experiment on UACC-62, 13.2 µM (inactive); in the experiment on UO-31, 17.6 µM (inactive); in the experiment with SF-295, 22.2 µM (inactive); in the experiment on OVCAR-4 it was 12.6 µM (inactive). Further, the GI50 in the experiment on SF-268 is 25.7 µM (inactive).

Turning to `COc1ccc(/C(=N/N=c2[nH]c3ccccc3[nH]2)C(=O)O)cc1`, the GI50 in the experiment on COLO 205, in the experiment on CCRF-CEM, with HOP-92, in the experiment on EKVX, with MOLT-4 and in the experiment on LOX IMVI was > 100 µM (inactive) throughout. Moreover, the GI50 with M14, in the experiment on NCI-H522, with HT-29, in the experiment with SR, in the experiment on HOP-62 and in the experiment on 786-0 was > 100 µM (inactive) throughout. The GI50 with TK-10, in the experiment with SK-MEL-28, in the experiment with UACC-62, in the experiment on UO-31, in the experiment on SF-295 and with OVCAR-4 was > 100 µM (inactive) each time. In addition, the GI50 in the experiment with SF-268 is > 100 µM (inactive).

Consider `COc1ccc(Br)c(/C=N\c2cccc3cc(OC)c(OC)cc23)c1`, for which the GI50 in the experiment with COLO 205 was 79.3 µM (inactive); with CCRF-CEM it was 2.82 µM (inactive); in the experiment on HOP-92, 20.2 µM (inactive); with EKVX, 97.1 µM (inactive); with MOLT-4, 4.81 µM (inactive); in the experiment on LOX IMVI, 4.57 µM (inactive). For the same molecule, the GI50 is 3.84 µM (inactive) in the experiment with M14; > 61.1 µM (inactive) in the experiment on NCI-H522; 20 µM (inactive) in the experiment on HT-29; 2.42 µM (inactive) in the experiment on SR; 9.64 µM (inactive) with HOP-62; 13.7 µM (inactive) in the experiment with 786-0. The GI50 with TK-10 was 28.1 µM (inactive); in the experiment with SK-MEL-28, 13.3 µM (inactive); in the experiment on UACC-62 it was 10.3 µM (inactive); with UO-31, 21.5 µM (inactive); in the experiment on SF-295, 12.8 µM (inactive); with OVCAR-4, 40.6 µM (inactive). In the experiment on SF-268, the GI50 is 7 µM (inactive).

In the case of `COc1ccc(/N=C2\C(=O)C3=C(OC(C)(C)CC3)c3ccccc32)cc1`, the GI50 is 2.93 µM (inactive) in the experiment on COLO 205; 1.48 µM (inactive) in the experiment with CCRF-CEM; 2.66 µM (inactive) in the experiment on HOP-92; 0.993 µM (active) with EKVX; 2.11 µM (inactive) in the experiment with MOLT-4; 0.481 µM (active) in the experiment on LOX IMVI. The GI50 is 0.769 µM (active) with M14; 1.04 µM (active) with NCI-H522; 0.741 µM (active) in the experiment with HT-29; 0.935 µM (active) in the experiment on SR; 0.91 µM (active) in the experiment with HOP-62; 0.971 µM (active) with 786-0. The GI50 with TK-10 was 2.33 µM (inactive); in the experiment with SK-MEL-28, 1.14 µM (inactive); in the experiment with UACC-62, 0.94 µM (active); in the experiment with UO-31, 0.755 µM (active); in the experiment with SF-295, 0.863 µM (active); in the experiment on OVCAR-4, 0.773 µM (active). Besides, the GI50 with SF-268 was 1.8 µM (inactive).

Take `CCCCc1ccc(-n2sc3ncc(C)cc3c2=O)cc1`: the GI50 was 20.5 µM (inactive) in the experiment on COLO 205; 8.18 µM (inactive) in the experiment with CCRF-CEM; 26.8 µM (inactive) in the experiment with HOP-92; 19.5 µM (inactive) with EKVX; 25.2 µM (inactive) with MOLT-4; 18.2 µM (inactive) in the experiment on LOX IMVI. For the same molecule, the GI50 is 13.4 µM (inactive) with M14; 16.3 µM (inactive) in the experiment with NCI-H522; 75.5 µM (inactive) in the experiment with SR; 30.3 µM (inactive) in the experiment with HOP-62; 34.9 µM (inactive) in the experiment with 786-0; 29.1 µM (inactive) in the experiment on TK-10. Further, the GI50 in the experiment with SK-MEL-28 is 96.2 µM (inactive); in the experiment with UACC-62 it was 32.4 µM (inactive); in the experiment with UO-31, 6.1 µM (inactive); in the experiment on SF-295 it was 45.2 µM (inactive); in the experiment with OVCAR-4, 33.7 µM (inactive).

Consider `CC(=O)O[C@H]1C(=O)[C@@]2(C)[C@H]([C@H](OC(=O)c3ccccc3)[C@]3(O)C[C@H](OC(=O)[C@H](O)[C@@H](NC(=O)C(C)(O)C(C)O)c4ccccc4)C(C)=C1C3(C)C)[C@]1(OC(C)=O)CO[C@@H]1C[C@@H]2O` (some centres not stated), for which the GI50 was 0.0933 µM (active) with COLO 205; 0.183 µM (active) with CCRF-CEM; 0.44 µM (active) with HOP-92; > 50 µM (inactive) in the experiment on EKVX; 0.282 µM (active) with MOLT-4; 0.607 µM (active) with LOX IMVI. For the same molecule, the GI50 in the experiment on M14 is 0.337 µM (active); with NCI-H522, 0.107 µM (active); with HT-29, 0.128 µM (active); in the experiment on SR, 0.133 µM (active); with HOP-62, 0.282 µM (active); with 786-0, 1.33 µM (inactive). Also, the GI50 is 5.69 µM (inactive) in the experiment with TK-10; 0.242 µM (active) with UACC-62; 27.6 µM (inactive) in the experiment on UO-31; 3.72 µM (inactive) in the experiment with SF-295; 13.2 µM (inactive) with OVCAR-4; 0.31 µM (active) in the experiment on SF-268.

These data come from ChEMBL document CHEMBL1201862, “PubChem BioAssay data set” (2004).
